Holding throughout (type): in vivo
The subject of series [1] is bean aphid (Aphis fabae Scop.). Put plainly: Bean Aphid Foliage Spray Test. Particulars: foliar, read-out: Aphid LD50. As for the experimental part: (§1) Suspensions of the test compounds were prepared by dissolving one gram of compound in 50 milliliters of acetone in which had been dissolved 0.1 gram (10 percent of the weight of compound) of an alkylphenoxy polyethoxyethanol surfactant, as an emulsifying or dispersing agent. The resulting solution was mixed into 150 milliliters of water to give roughly 200 milliliters of a suspension containing the compound in finely divided form. The thusprepared stock suspension contained 0.5 percent by weight of compound. The test concentrations in parts per million by weight employed in the tests described hereinbelow were obtained by appropriate dilutions of the stock suspension with water. The test procedures were as follows:
Bean Aphid Foliage Spray Test
Adults and nymphal stages of the bean aphid (Aphis fabae Scop.) reared on potted dwarf nasturtium plants at 65°-70° F. and 50-70 percent relative humidity, constituted the test insects. For testing purposes, the number of aphids per pot was standardized to 100-150 by trimming plants containing excess aphids.
The test compounds were formulated by diluting the stock suspension with water to give a suspension containing 500 parts of test compound per million parts of final formulation.
The potted plants (one pot per compound tested) infested with 100-150 aphids, were placed on a revolving turntable and sprayed with 100-110 milliliters of test compound formulation by use of a DeVilbiss spray gun set at 40 psig. air pressure. This application, which lasted 25 seconds, was sufficient to wet the plants to run-off. As a control, 100-110 milliliters of a water-acetone-emulsifier solution containing no test compound were also sprayed on infested plants. After spraying, the pots were placed on their sides on a sheet of white standard mimeograph paper which had been previously ruled to facilitate counting. Temperature and humidity in the test room during the 24 hour holding period were 65°-70° F. and 50-70 percent, respectively. Aphids which fell onto the paper and were unable to remain standing after being uprighted were considered dead. Aphis remaining on the plants were observed closely for movement and those which were unable to move the length of the body upon stimulation by prodding were considered dead. Percent mortality was recorded for various concentration levels.
(§2) In these tests the pesticidal activity of the compounds against aphid, mite, Southern Armyworm, Bean Beetle and House Fly was rated as follows:
(§3) Dashes indicate no test conducted.
(§4) The results set forth in TABLE I clearly show the broad spectrum pesticidal activity of the compounds of this invention, as well as their reduced mammalian toxicity. It will be understood that the insect and mite species employed in the above tests are merely representative of a wide variety of pests that can be controlled through the use of the compounds of this invention. A series of comparative tests were conducted to evaluate the relative biological properties of the compounds of the invention and certain prior art compounds. The test procedures employed are identical to those discussed above. The results are reported in the parts per million of the compound required for a 50% kill (LD50).

The subject of series [2] is southern armyworm (Prodenia eridania, (Cram.)). Put plainly: Southern Armyworm Leaf Spray Test. Particulars: Spodoptera eridania, read-out: Southern Armyworm LD50. As for the experimental part: as §1
Southern Armyworm Leaf Spray Test
Larvae of the southern armyworm (Prodenia eridania, (Cram.)), reared on Tendergreen bean plants at a temperature of 80°±5° F. and a relative humidity of 50±5 percent, constituted the test insects.
The test compounds were formulated by diluting the stock suspension with water to given a suspension containing 500 parts of test compound per million parts of final formulation. Potted Tendergreen bean plants of standard height and age were placed on a revolving turntable and sprayed with 100-110 milliliters of test compound formulation by use of a DeVilbiss spray gun set at 10 psig air pressure. This application, which lasted 25 seconds, was sufficient to wet plants to run-off. As a control, 100-110 milliliters of a water-acetone-emulsifier solution containing no test compound were also sprayed on infested plants. When dry, the paired leaves were separated and each one was placed in a 9 centimeter Petri dish lined with moistened filter paper. Five randomly selected larvae were introduced into each dish and the dishes were closed. The closed dishes were labeled and held at 80°-85° F. for three days. Although the larvae could easily consume the whole leaf within 24 hours, no more food was added. Larvae which were unable to move the length of the body, even upon stimulation by prodding, were considered dead. Percent mortality was recorded for various concentration levels.
as §2, §3, §4

The test system of series [3] is Mexican bean beetle (Epilachna varivestis, Muls.). Put plainly: Mexican Bean Beetle Leaf Spray Test. The following applies: read-out: Mexican Bean Beetle LD50. How it is done:
as §1
Mexican Bean Beetle Leaf Spray Test
Fourth instar larvae of the Mexican bean beetle Epilachna varivestis, Muls.), reared on Tendergreen bean plants at a temperature of 80°±5° F. and 50±5 percent relative humidity, were the test insects.
The test compounds were formulated by diluting the stock suspension with water to give a suspension containing 500 parts of test compound per million parts of final formulation. Potted Tendergreen bean plants of standard height and age were placed on a revolving turntable and sprayed with 100-110 milliliters of test compound formulation by use of a DeVilbiss spray gun set at 10 psig air pressure. This application, which lasted 25 seconds, was sufficient to wet plants to run-off. As a control, 100-110 milliliters of a water-acetone-emulsifier solution containing no test compound were also sprayed on infested plants. When dry, the paired leaves were separated and each was placed in a 9 centimeter Petri dish lined with moistened filter paper. Five randomly selected larvae were introduced into each dish, and the dishes were closed. The closed dishes were labeled and held at a temperature of 80°±5° F. for three days. Although the larvae could easily consume the leaf within 24 to 48 hours, no more food was added. Larvae which were unable to move the length of the body, even upon stimulation, were considered dead.
as §2, §3, §4

Series [4] deals with house flies (Musca domestica, L.). Put plainly: Fly Bait Test. Particulars: read-out: Housefly LD50. How it is done: as §1
Four to six day old adult house flies (Musca domestica, L.) reared according to the specifications of the Chemical Specialties Manufacturing Association (Blue Book, McNair-Dorland Co., N.Y. 1954; pages 243-244, 261) under controlled conditions of 80°±5° F. and 50±5 percent relative humidity, were the test insects. The flies were immobilized by anesthetizing with carbon dioxide and twenty five immobilized individuals, males and females, were transferred to a cage consisting of a standard food strainer about five inches in diameter which was inverted over a wrapping-paper-covered surface. The test compounds were formulated by diluting the stock suspension with a 10 percent (by weight) sugar solution to give a suspension containing 500 parts of test compound per million parts of final formulation, by weight. Ten milliliters of the test formulation were added to a souffle cup containing a one-inch square of an absorbent cotton pad. This bait cup was introduced and centered on the blotting paper under the food strainer prior to admitting the anesthetized flies. The caged flies were allowed to feed on the bait for 24 hours, at a temperature of 80°±5° F. and the relative humidity of 50±5 percent.
as §2, §3, §4

A short description of series [5]: peroral toxicity to mammals (rat LD50). The following applies: rat, in vivo, po, rat. As for the experimental part: (§5) Certain of these compositions were also evaluated to determine their peroral toxicity to mammals. The animal selected for this experiment was the rat. The test results obtained are expressed in terms of the number of milligrams of compositions per kilogram of weight of the animal required to achieve a mortality rate of 50 percent (LD50).
as §4

Another series deals with rat. Put plainly: peroral toxicity to mammals (rat LD50). Particulars: for times less toxic to mammals than compound 1: rat LD50 relative to compound 1; for times less toxic to mammals than compound 2: rat LD50 relative to compound 2. How it is done:
as §5, §4

[6] abbreviates: concentration required for a 50% kill, comparative test.
[7] abbreviates: comparative test, read-out: Rat LD50 (Table II).
The mark [8] stands for this setting: peroral, mortality rate of 50 percent, read-out: Rat LD50 (Table I).

Converted amounts (≈) assume the structure as drawn. Like-named read-outs stand apart in the source and are kept apart here.

In the case of `CNC(=O)Oc1cccc2c1OC(C)(C)C2` [Compound 1, 2,3-dihydro-2,2-dimethyl-7-benzofuranyl methyl carbamate, reference compound], the LC50 in series [1] (setting [6]) amounted to 2 µg/mL (≈ 9.04 µM); in series [2] (setting [6]), 90 µg/mL (≈ 407 µM); in series [3] (setting [6]) it was 12 µg/mL (≈ 54.2 µM); in series [4] (setting [6]), 12 µg/mL (≈ 54.2 µM). The LD50 in series [5] (setting [7]) amounted to 5 mg/kg.

`CN(SN(C)C(=O)Oc1cccc2c1OC(C)(C)C2)C(=O)Oc1cccc2c1OC(C)(C)C2` [Compound 2, reference compound]: the LC50 is 1 µg/mL (≈ 2.12 µM) in series [1], 13 µg/mL (≈ 27.5 µM) in series [2], 2 µg/mL (≈ 4.23 µM) in series [3] and 30 µg/mL (≈ 63.5 µM) in series [4]. Besides, the median lethal dose (LD50) in series [5] (setting [7]) turned out to be 6.3 mg/kg.

For `CC(C)c1cccc(OC(=O)N(C)SN(C)C(=O)Oc2cccc3c2OC(C)(C)C3)c1` [Compound 3, [2,2-Dimethyl-2,3-dihydro-7-benzofuranyl methylcarbamate]N-[3-isopropylphenyl methylcarbamate]sulfide], the LC50 in series [1] was determined as 1 µg/mL (≈ 2.25 µM); in series [2] it was 20 µg/mL (≈ 45 µM); in series [3] it was 3 µg/mL (≈ 6.75 µM); in series [4], 22 µg/mL (≈ 49.5 µM). Moreover, the LD50 in series [5] (setting [8]) and in series [5] (setting [7]) was 80 mg/kg throughout. In addition, the “times less toxic to mammals than compound 1” value in the series on rat is given as “at least 16 times”. The “times less toxic to mammals than compound 2” value in the series on rat is on record as “at least 13 times”.

In the case of `CN(SN(C)C(=O)Oc1cccc2c1OC(C)(C)C2)C(=O)Oc1ccc(C(C)(C)C)cc1` [Compound 4, [2,2-Dimethyl-2,3-dihydro-7-benzofuranyl methylcarbamate]N-[4-t-butylphenylmethylcarbamate]sulfide], the LC50 stood at 2 µg/mL (≈ 4.36 µM) in series [1], 23 µg/mL (≈ 50.2 µM) in series [2], 18 µg/mL (≈ 39.3 µM) in series [3] and 17 µg/mL (≈ 37.1 µM) in series [4]. For the same compound, the median lethal dose (LD50) in series [5] (setting [8]) and in series [5] (setting [7]) was 45 mg/kg in each case. The “times less toxic to mammals as compound 2 (first of the two statements for compound 4)” value with rat (rat LD50, printed relative to compound 2) is “nine”. The “times less toxic to mammals than compound 2” value in the series with rat was “seven”.

Regarding `CN(SN(C)C(=O)Oc1cccc2c1OC(C)(C)C2)C(=O)Oc1ccc([N+](=O)[O-])cc1` [Compound 5], the LC50 is 2 µg/mL (≈ 4.47 µM) in series [1], 20 µg/mL (≈ 44.7 µM) in series [2], 4 µg/mL (≈ 8.94 µM) in series [3] and 45 µg/mL (≈ 101 µM) in series [4]. In series [5] (setting [7]), the LD50 came out at 25.2 mg/kg. Further, the “times less toxic to mammals than compound 1” value in the series with rat is on record as “five”. The “times less toxic to mammals than compound 2” value in the series on rat was “four”.

For `CN(SN(C)C(=O)Oc1cccc2c1OC(C)(C)C2)C(=O)Oc1ccc([N+](=O)[O-])cc1` [[2,2-Dimethyl-2,3-dihydro-7-benzofuranyl methylcarbamate]N-(4-nitrophenyl methylcarbamate]sulfide], the 50% lethal dose (LD50) in series [5] (setting [8]) amounted to 25 mg/kg.

In the case of `CSc1ccc(OC(=O)N(C)SN(C)C(=O)Oc2cccc3c2OC(C)(C)C3)cc1C` [[2,2-Dimethyl-2,3-dihydro-7-benzofuranylmethylcarbamate]N-[3-methyl-4-methylthiophenyl methylcarbamate]sulfide], the LD50 in series [5] (setting [8]) was 18 mg/kg.

As usually defined, the LD50 is the dose expected to kill half of the subjects tested.

The record behind these values is US4124721A, “Pesticidal unsymmetrical bis-arylcarbamate sulfide compounds containing a 2,3, dehyrobenzofuran group” (priority 1977, dated 1978).
